In one data set the target is T1, rat NaP2b (SLC34A2) (Rattus norvegicus, UniProt Q9JJ09).
T1 construct: host or cells: HEK293
T1 sequence (Q9JJ09 1-695): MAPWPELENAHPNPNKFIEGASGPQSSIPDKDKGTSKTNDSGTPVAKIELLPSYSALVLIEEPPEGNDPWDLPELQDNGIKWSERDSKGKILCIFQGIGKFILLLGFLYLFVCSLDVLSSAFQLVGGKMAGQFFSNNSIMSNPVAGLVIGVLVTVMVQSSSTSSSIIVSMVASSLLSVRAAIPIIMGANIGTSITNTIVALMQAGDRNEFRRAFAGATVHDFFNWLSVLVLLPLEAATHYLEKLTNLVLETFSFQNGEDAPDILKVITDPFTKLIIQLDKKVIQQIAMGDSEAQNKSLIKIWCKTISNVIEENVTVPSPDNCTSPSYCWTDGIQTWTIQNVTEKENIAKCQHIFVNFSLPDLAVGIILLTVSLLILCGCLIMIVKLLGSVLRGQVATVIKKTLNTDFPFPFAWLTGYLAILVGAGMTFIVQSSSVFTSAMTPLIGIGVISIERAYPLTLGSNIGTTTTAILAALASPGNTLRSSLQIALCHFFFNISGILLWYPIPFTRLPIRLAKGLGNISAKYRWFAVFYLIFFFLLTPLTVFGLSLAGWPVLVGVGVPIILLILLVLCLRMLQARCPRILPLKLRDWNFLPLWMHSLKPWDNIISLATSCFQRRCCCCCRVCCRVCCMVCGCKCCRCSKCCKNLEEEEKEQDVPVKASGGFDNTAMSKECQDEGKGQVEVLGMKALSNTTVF
Nature of the data set: Inhibition of NaP2b-mediated Pi uptake into transfected HEK293 cells (rat). Format: cell-based. Conditions: 33P Pi uptake, 100 uM KH2PO4, read-out: pIC50 range for rat Nap2b (converted). As for the experimental part:
(§1) HEK293 cells were obtained from the American Type Culture collection and propagated per their instructions. Expression clones for rat and human NaP2b (SLC34A2) were obtained from Open Biosystems (Catalog numbers MRN1768-9510282, and MHS1010-99823026, respectively). The sequence of the human protein was mutated to insert a threonine after residue 37, and to introduce a N39D mutation.
(§2) The rate of phosphate (Pi) uptake into HEK293 cells was measured using a modification of the method described by Mohrmann et al. (Mohrmann, I., Mohrmann, M., Biber, J., and Murer, H. (1986) Am. J. Phys. 250(3 Pt 1):G323-30.) Transfected HEK293 cells were treated with a pharmacological agent to minimize endogenous PiT-mediated phosphate transport activity, such that the only remaining sodium-dependent phosphate transport activity is that which was bestowed by introduction of the NaP2b genes.
Cells were seeded into 96-well plates at 25,000 cells/well and cultured overnight. Lipofectamine 2000 (Invitrogen) was used to introduce the NaP2b cDNA, and the cells were allowed to approach confluence during a second overnight incubation. […] Cells were then overlayed with either choline uptake buffer or sodium uptake buffer (14 mM Tris, 137 mM sodium chloride, 5.4 mM KCl, 2.8 mM CaCl2, 1.2 mM MgSO4, 100 uM KH2PO4, PiT-silencing agent, 1 mg/mL Bovine Serum Albumin, pH 7.4) containing 6-9 uCi/mL ^33P orthophosphoric acid (Perkin Elmer) and test compound. Each compound was tested at twelve concentrations ranging from 0.1 nM to 30 uM. Assays were run in duplicate.
(§3) After incubation for 3-30 minutes at room temperature, assay mixtures were removed, and the cells were washed twice with ice cold stop solution (137 mM sodium chloride, 14 mM Tris, pH 7.4). Cells were lysed by addition of 20 μL 0.1% Tween 80 followed by 100 μL scintillation fluid, and counted using a TopCount (Perkin Elmer).
(§4) pIC50 (the negative log of the IC50) values of the test compounds were calculated using GraphPad Prism.

Data set [1] has as its system uptake of phosphorus from the intestine. Nature of the data set: In vivo evaluation, co-dosing in chow: inhibition of uptake of phosphorus from the intestine. On the set-up: species or system Sprague-Dawley rats. Conditions: rat, compound in chow, mean drug dose 115 mg/kg/day, versus control group. The text has this: Male, 7-week-old Sprague-Dawley rats (Charles-River laboratories international, Hollister, Calif.) were allowed to acclimate for a minimum of 3 days. The experiment was initiated by switching animals to a synthetic diet (0.6% phosphorus and 0.6% calcium, Harlan Teklad TD.84122) for four days. After this time, the animals were placed into metabolic cages for daily monitoring of food and water consumption, as well as urine and fecal collections. Test compounds were incorporated into the powdered diet listed above containing 3% chocolate flavoring (w/w, BioServ #7345) at 1.3 mg test compound per gram of diet to achieve an average daily nominal dose of 100 mg/kg/day. The actual dose received by each animal was later determined by measuring prepared diet consumption and body weight. Urine samples were collected in three daily periods from 24-48, 48-72, and 72-96 hours of drug dosing. […] Phosphorus levels in the urine were determined by anion exchange chromatography using a Dionex ICS-3000 ion chromatography system. […] Elution of urine phosphate ions was monitored via conductivity detector and reported as ppm relative to a standard ion solution containing phosphate. Daily urinary P output relative to the P consumed in the prepared diet for each animal was calculated. […] The differences between the means of control and treated groups were evaluated by t tests.

The next data set has as its system NaPi2b. Nature of the data set: Competition with phosphate: Pi uptake assay repeated at 2.1 vs 0.1 mM phosphate. In kind it is cell-based. Conditions: potency at 2.1 vs 0.1 mM phosphate. As for the experimental part:
To ascertain if an inhibitor was competitive for binding with phosphate, the procedure was repeated, but raising the concentration of the substrate in the assay mixture from 0.1 to 2.1 mM phosphate.

Data set [2] in a line: Determination of compound Cmax and AUC after oral gavage. Format: in vivo, Sprague-Dawley rats. Conditions: Sprague-Dawley, rat plasma; for AUC: blood at 0.5-4 h. As for the experimental part: Blood samples were processed to plasma using K2EDTA as an anticoaglulant. Plasma samples were treated with acetonitrile containing an internal standard, precipitated proteins removed by centrifugation. Supernatants were analyzed by LC-MS/MS and compound concentrations were determined by interpolated from a standard curve prepared in plasma. All compounds were orally dosed at the dosage shown, and pharmacokinetic parameters determined.

Data set [3] is described as follows: Fecal recovery of orally administered compounds. Format: in vivo, Sprague-Dawley rats. Conditions: rat, oral gavage, feces collected until 48 hr after dosing; same animals as Example 6. As for the experimental part:
The animals were kept in metabolic cages and feces were collected from the time of dosing until 48 hr after dosing. Upon collection, feces was dried by lyophilization and ground to a visually homogenous powder. Duplicate samples of ground feces from each individual animal were weighed out and extracted using organic solvent. Extracted samples were then diluted into mobile phase and test compound levels were quantitatively determined by LC-MS/MS analysis as described in Example 6 except that the standard curve was prepared in a feces matrix.

A further data set deals with T2, human NaP2b (SLC34A2) (Homo sapiens, UniProt O95436).
T2 construct: host or cells: HEK293
T2 sequence (O95436 1-690): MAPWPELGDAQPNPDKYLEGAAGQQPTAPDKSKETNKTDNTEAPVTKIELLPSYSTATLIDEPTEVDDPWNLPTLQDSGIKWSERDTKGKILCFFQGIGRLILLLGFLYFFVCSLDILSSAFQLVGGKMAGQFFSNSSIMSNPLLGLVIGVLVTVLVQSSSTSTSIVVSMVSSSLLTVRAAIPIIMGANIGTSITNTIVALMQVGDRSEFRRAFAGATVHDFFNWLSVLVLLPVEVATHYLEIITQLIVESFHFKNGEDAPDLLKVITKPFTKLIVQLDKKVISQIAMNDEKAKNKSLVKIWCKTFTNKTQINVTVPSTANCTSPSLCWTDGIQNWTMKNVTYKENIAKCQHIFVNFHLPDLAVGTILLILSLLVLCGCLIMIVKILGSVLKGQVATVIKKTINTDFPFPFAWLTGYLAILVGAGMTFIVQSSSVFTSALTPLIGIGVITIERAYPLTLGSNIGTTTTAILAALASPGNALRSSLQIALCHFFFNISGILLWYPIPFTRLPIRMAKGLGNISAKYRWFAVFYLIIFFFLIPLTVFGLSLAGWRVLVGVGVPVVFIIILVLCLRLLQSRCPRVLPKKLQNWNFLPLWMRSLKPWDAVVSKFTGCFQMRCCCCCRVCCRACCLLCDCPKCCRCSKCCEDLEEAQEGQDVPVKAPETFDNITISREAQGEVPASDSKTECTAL
Nature of the data set: Inhibition of NaP2b-mediated Pi uptake into transfected HEK293 cells (human). In kind it is cell-based. Conditions: 33P Pi uptake, 100 uM KH2PO4, human protein with Thr inserted after residue 37 and N39D, read-out: pIC50 range for human (converted). As for the experimental part:
as §1, §2
Cells were seeded into 96-well plates at 25,000 cells/well and cultured overnight. […]
as §3, §4

In general, Cmax refers to the maximum level reached in the sampled fluid or tissue. Usually AUC stands for the area under the concentration-time curve, a measure of exposure. Turning to `CN(CCN1CCOCC1)C(=O)c1cccc(C(=O)Nc2ccc(N3CCCCC3)cc2C(=O)c2cc3ccc(C(F)(F)F)cc3[nH]2)c1` [Example 2, N1-Methyl-N1-(2-morpholinoethyl)-N3-(4-(piperidin-1-yl)-2-(6-(trifluoromethyl)-1H-indole-2-carbonyl)phenyl)isophthalamide 2,2,2-trifluoroacetate], the IC50 at rat NaP2b (SLC34A2) and at human NaP2b (SLC34A2) was under 1000 nM each time. The “Mean % inhibition Urine Pout/P consumed” value in data set [1] is given as 20%. In the data set with NaPi2b, the “Competitive with respect to Pi?” value is reported as “No”. In addition, in data set [2] (actual oral dose 11 mg/kg, LLOQ 0.5 ng/mL), the concentration peaked (Cmax) at 91 ng/mL. Besides, the AUC in data set [2] (actual oral dose 11 mg/kg) is under 97 ng·h/mL. Further, the “% recovered in feces” value in data set [3] is given as 2.9%.

Consider `O=C(O)CCSCc1cccc(C(=O)Nc2ccc(N3CCCCC3)cc2C(=O)c2cc3ccc(C(F)(F)F)cc3[nH]2)c1` [Example 1, 3-(3-((4-(Piperidin-1-yl)-2-(6-(trifluoromethyl)-1H-indole-2-carbonyl)phenyl)carbamoyl)benzylthio)propanoic acid], for which the IC50 at rat NaP2b (SLC34A2) and at human NaP2b (SLC34A2) was 1000 to 7940 nM throughout. For the same molecule, the concentration in data set [2] (actual oral dose 7.5 mg/kg, LLOQ 10 ng/mL) peaked (Cmax) at 299 ng/mL. This molecule also displayed an AUC in data set [2] (actual oral dose 7.5 mg/kg) of 433 ng·h/mL. In addition, the “% recovered in feces” value in data set [3] stood at 34%.

With `COCCNC(=O)c1cccc(SCc2cccc(C(=O)Nc3ccc(N4CCCCC4)cc3C(=O)c3cc4ccc(C(F)(F)F)cc4[nH]3)c2)c1` [Example 3, N-(2-Methoxyethyl)-3-(3-(4-(piperidin-1-yl)-2-(6-(trifluoromethyl)-1H-indole-2-carbonyl)phenylcarbamoyl)benzylthio)benzamide], the IC50 at rat NaP2b (SLC34A2) was 2000 to 25100 nM.
